Assay results published in patent publication US6376485B1, “Benzoxazoles with PDE-inhibiting activity” (Byk Gulden Lomberg Chemische Fabrik GmbH, priority 1998, dated 2002).

Key:
[1] = test system: PDE4; experiment: Inhibition of PDE4 activity (method of Bauer and Schwabe, adapted to microtiter plates); type: biochemical; conditions: inhibitory concentration as -log IC50 (mol/l)
Protocol: The activity test was carried out according to the method of Bauer and Schwabe, which was adapted to microtiter plates (Naunyn-Schmiedeberg's Arch. Pharmacol. 1980, 311, 193-198). In this test, the PDE reaction takes place in the first step. In a second step, the resulting 5′-nucleotide is cleaved by a 5′-nucleotidase of the snake venom from Crotalus atrox to give the uncharged nucleoside. In the third step, the nucleoside is separated from the remaining charged substrate on ion-exchange columns. The columns are eluted directly into minivials to which 2 ml of scintillator fluid is additionally added for counting […].
The inhibitory values determined for the compounds according to the invention [inhibitory concentration as -log IC50 (mol/l)] results from the following Table A, in which the numbers of the compounds correspond to the numbers of the examples.

| SMILES | Inhibition of the PDE4 activity, -log IC50 [1] [mol/l] | melting point [°C] |
| --- | --- | --- |
| COc1ccc(C2(C#N)CCOCC2)c2nc(C)oc12 [Compound 1, 4a-Cyano-4e-(2-methyl-7-methoxybenzoxazol-4-yl)tetrahydropyran] | 6.87 | 72 |
| COc1ccc(C2(C#N)CCOCC2)c2nc(C(C)C)oc12 [Compound 2, 4a-Cyano-4e-(2-isopropyl-7-methoxybenzoxazol-4-yl)-tetrahydropyran] | 7.86 | 156.5 |
| COc1ccc(C2(C#N)CCC(=O)CC2)c2nc(C(C)C)oc12 [Compound 3, 4-Cyano-4-(2-isopropyl-7-methoxybenzoxazol-4-yl)cyclohexanone] | 6.96 | 118 |
| COc1ccc(C2(C#N)CCC(O)CC2)c2nc(C(C)C)oc12 (stereo not drawn) [Compound 4, cis-4-Cyano-4-(2-isopropyl-7-methoxybenzoxazol-4-yl)cyclohexan-1-ol] | 7.77 | 116.5 |
| COC(=O)C1CCC(C#N)(c2ccc(OC)c3oc(C(C)C)nc23)CC1 (stereo not drawn) [Compound 5, Methyl cis-4-cyano-(2-isopropyl-7-methoxybenzoxazol-4-yl)cyclohexane-1-carboxylate] | 6.46 | 83 |
| COc1ccc(C2(C#N)CCC(C(=O)O)CC2)c2nc(C(C)C)oc12 (stereo not drawn) [Compound 6, cis-4-Cyano-4-(2-isopropyl-7-methoxybenzoxazol-4-yl)cyclohexane-1-carboxylic acid] | 7.69 | 217.5 |
| COc1ccc(C2(C#N)CCC(C(N)=O)CC2)c2nc(C(C)C)oc12 (stereo not drawn) [Compound 7, Cis-4-Cyano-4-(2-isopropyl-7-methoxybenzoxazol-4-yl)cyclohexane-1-carboxamide] | 7.65 | 228 |
